Reference: patent US20230250066A1, “HERBICIDAL CINNOLINE DERIVATIVES” (SYNGENTA CROP PROTECTION AG, priority 2020, published 2023)

Legend:
Assay type in all cases: in vivo
[1] = test system: Abutilon theophrasti (ABUTH); assay: Pre-emergence herbicidal test; conditions: 1000 g/ha, evaluated after 13 days
Zea mays (ZEAMX) [2] = assay: Pre-emergence herbicidal test; conditions: 1000 g/ha, evaluated after 13 days
[3] = test system: Amaranthus retoflexus (AMARE); assay: Pre-emergence herbicidal test; conditions: 1000 g/ha, evaluated after 13 days
Setaria faberi (SETFA) [4] = assay: Pre-emergence herbicidal test; conditions: 1000 g/ha, evaluated after 13 days
[5] = test system: Ipomoea hederacea (IPOHE); assay: Pre-emergence herbicidal test; conditions: 1000 g/ha, evaluated after 13 days
Setaria faberi (SETFA) [6] = assay: Post-emergence herbicidal test; conditions: 1000 g/ha unless otherwise stated, evaluated after 13 days
Method in brief: (§1)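 Pots sown in standard soil were kept in a glasshouse (24° C./16° C. day/night, 14 hours light, 65% humidity) and sprayed at 1000 g/ha unless otherwise stated in acetone/water (50:50) with 0.5% Tween 20. Percentage damage was scored after 13 days on a 0–5 scale.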

[7] = test system: Abutilon theophrasti (ABUTH); assay: Post-emergence herbicidal test; conditions: 1000 g/ha unless otherwise stated, evaluated after 13 days
Method in brief: as §1

Zea mays (ZEAMX) [8] = assay: Post-emergence herbicidal test; conditions: 1000 g/ha unless otherwise stated, evaluated after 13 days
Method in brief: as §1

[9] = test system: Ipomoea hederacea (IPOHE); assay: Post-emergence herbicidal test; conditions: 1000 g/ha unless otherwise stated, evaluated after 13 days
Method in brief: as §1

[10] = test system: Amaranthus retoflexus (AMARE); assay: Post-emergence herbicidal test; conditions: 1000 g/ha unless otherwise stated, evaluated after 13 days
Method in brief: as §1

[11] = test system: Echinochloa crus-galli (ECHCG); assay: Post-emergence herbicidal test; conditions: 1000 g/ha unless otherwise stated, evaluated after 13 days
Method in brief: as §1

[12] = test system: Echinochloa crus-galli (ECHCG); assay: Pre-emergence herbicidal test; conditions: 1000 g/ha, evaluated after 13 days

Row | Compound | percentage damage caused to the plant, five-point scale, ABUTH [1] | percentage damage caused to the plant, five-point scale, ZEAMX (Zea mays (ZEAMX) [2]) | percentage damage caused to the plant, five-point scale, AMARE [3] | percentage damage caused to the plant, five-point scale, SETFA (Setaria faberi (SETFA) [4]) | percentage damage caused to the plant, five-point scale, IPOHE [5] | percentage damage caused to the plant, SETFA (five-point scale) (Setaria faberi (SETFA) [6]) | percentage damage caused to the plant, ABUTH (five-point scale) [7] | percentage damage caused to the plant, ZEAMX (five-point scale) (Zea mays (ZEAMX) [8]) | percentage damage caused to the plant, IPOHE (five-point scale) [9] | percentage damage caused to the plant, AMARE (five-point scale) [10] | percentage damage caused to the plant, ECHCG (five-point scale) [11] | percentage damage caused to the plant, five-point scale, ECHCG [12]
1 | O=C(O)c1nn(-c2ccc(OC(F)(F)F)cc2)c2cccc(S(=O)(=O)CC(F)(F)F)c2c1=O [Compound P35, 4-oxo-5-(2,2,2-trifluoroethylsulfonyl)-1-[4-(trifluoromethoxy)phenyl]cinnoline-3-carboxylic acid] | 1 (1=10-20%) | 1 (1=10-20%) | 0 (0=0%) | 0 (0=0%) | 0 (0=0%) | 2 (2=21-40%) | 1 (1=10-20%) | 1 (1=10-20%) | 0 (0=0%) | 1 (1=10-20%) | 1 (1=10-20%) | 0 (0=0%)
2 | CS(=O)(=O)c1cccc2c1c(=O)c(C(=O)OCCCCOCc1ccccc1)nn2-c1ccc(OC(F)(F)F)cc1 [Compound P89, 4-benzyloxybutyl 5-methylsulfonyl-4-oxo-1-[4-(trifluoromethoxy)phenyl]cinnoline-3-carboxylate] | 0 (0=0%) | 0 (0=0%) | 0 (0=0%) | 4 (4=61-80%) | 0 (0=0%) | 4 (4=61-80%) | 0 (0=0%) | 0 (0=0%) | 0 (0=0%) | 0 (0=0%) | 3 (3=41-60%) | 4 (4=61-80%)
3 | CCSc1cccc2c1c(=O)c(C(=O)O)nn2-c1ccc(OC(F)(F)F)cc1 [Compound P26, 5-ethylsulfanyl-4-oxo-1-[4-(trifluoromethoxy)phenyl]cinnoline-3-carboxylic acid] | 0 (0=0%) | 0 (0=0%) | 1 (1=10-20%) | 0 (0=0%) | 0 (0=0%) | 1 (1=10-20%) | 1 (1=10-20%) | 1 (1=10-20%) | 0 (0=0%) | 0 (0=0%) | 1 (1=10-20%) | 0 (0=0%)
4 | CS(=O)(=O)c1c(F)ccc2c1c(=O)c(C(=O)O)nn2-c1ccc(OC(F)(F)F)cc1 [Compound P20, 6-fluoro-5-methylsulfonyl-4-oxo-1-[4-(trifluoromethoxy)phenyl]cinnoline-3-carboxylic acid] | 0 (0=0%) | 0 (0=0%) | 0 (0=0%) | 0 (0=0%) | 0 (0=0%) | 0 (0=0%) | 0 (0=0%) | 0 (0=0%) | 0 (0=0%) | 0 (0=0%) | 0 (0=0%) | 0 (0=0%)
5 | CS(=O)(=O)c1cc(Br)cc2c1c(=O)c(C(=O)O)nn2-c1ccc(OC(F)(F)F)cc1 [Compound P13, 7-bromo-5-methylsulfonyl-4-oxo-1-[4-(trifluoromethoxy)phenyl]cinnoline-3-carboxylic acid] | 1 (1=10-20%) | 0 (0=0%) | 0 (0=0%) | 0 (0=0%) | 0 (0=0%) | 1 (1=10-20%) | 0 (0=0%) | 1 (1=10-20%) | 0 (0=0%) | 1 (1=10-20%) | 1 (1=10-20%) | 0 (0=0%)
6 | CCOC(=O)c1nn(-c2ccc(OC(F)(F)F)cc2)c2ccc(F)c(S(C)(=O)=O)c2c1=O [Compound P51, ethyl 6-fluoro-5-methylsulfonyl-4-oxo-1-[4-(trifluoromethoxy)phenyl]cinnoline-3-carboxylate] | 0 (0=0%) | 0 (0=0%) | 0 (0=0%) | 0 (0=0%) | 0 (0=0%) | 0 (0=0%) | 0 (0=0%) | 0 (0=0%) | 0 (0=0%) | 0 (0=0%) | 0 (0=0%) | 0 (0=0%)
7 | CCCCCCCOC(=O)c1nn(-c2ccc(OC(F)(F)F)cc2)c2cccc(S(C)(=O)=O)c2c1=O [Compound P77, heptyl 5-methylsulfonyl-4-oxo-1-[4-(trifluoromethoxy)phenyl]cinnoline-3-carboxylate] | 0 (0=0%) | 0 (0=0%) | 0 (0=0%) | 5 (5=81-100%) | 0 (0=0%) | 4 (4=61-80%) | 1 (1=10-20%) | 0 (0=0%) | 0 (0=0%) | 0 (0=0%) | 3 (3=41-60%) | 3 (3=41-60%)
8 | CCOC(=O)c1nn(-c2ccc(OC(F)(F)F)cc2)c2cccc([S+]([O-])C3CC3)c2c1=O (stereo not drawn) [Compound P32, ethyl 5-cyclopropylsulfinyl-4-oxo-1-[4-(trifluoromethoxy)phenyl]cinnoline-3-carboxylate] | 0 (0=0%) | 0 (0=0%) | 0 (0=0%) | 2 (2=21-40%) | 0 (0=0%) | 1 (1=10-20%) | 0 (0=0%) | 1 (1=10-20%) | 0 (0=0%) | 0 (0=0%) | 1 (1=10-20%) | 1 (1=10-20%)
